Source: patent publication US20160090556A1, “PRODUCTS COMPRISING MALODOR REDUCTION MATERIALS” (The Procter & Gamble Company, priority 2014, published 2016)

Test: Liquid dish neat product liquid-air partition coefficient
Type: physicochemical
Conditions: not given
For `CC(C)=CCCC(C)=C1CC=C(C)CC1` [Material 608], the “Log of liquid dish neat product liquid-air partition coefficient (Comment Code K/L)” value (“Log … (Comment Code K/L)” for short) was “K (Log of liquid dish neat product liquid-air partition coefficient greater than or equal to −7)”. In the case of `CC1=C2CCC(C)C2CC(C(C)(C)O)CC1` (stereo not shown) [Material 920], the “Log … (Comment Code K/L)” value is reported as “K (Log of liquid dish neat product liquid-air partition coefficient greater than or equal to −7)”. In the case of `CC(=O)OC12CCCC(C)(CCC3C1CC3(C)C)C2` (stereo not shown) [Material 573], the “Log … (Comment Code K/L)” value is reported as “K (Log of liquid dish neat product liquid-air partition coefficient greater than or equal to −7)”. With `CC(C)C(=O)OC1CC2CCC1(C)C2(C)C` (stereo not shown) [Material 603] the “Log … (Comment Code K/L)” value was “K (Log of liquid dish neat product liquid-air partition coefficient greater than or equal to −7)”. With `CC(=CCC1CC=C(C)C1(C)C)CO` (stereo not shown) [Material 908] the “Log … (Comment Code K/L)” value was “K (Log of liquid dish neat product liquid-air partition coefficient greater than or equal to −7)”. In the case of `OCCOc1ccccc1` [Material 834], the “Log … (Comment Code K/L)” value is reported as “K (Log of liquid dish neat product liquid-air partition coefficient greater than or equal to −7)”. For `CCCCCOC(=O)C=Cc1ccccc1` [Material 671], the “Log … (Comment Code K/L)” value was “K (Log of liquid dish neat product liquid-air partition coefficient greater than or equal to −7)”. For `CCCC(O)Cc1ccccc1` (stereo not shown) [Material 730], the “Log … (Comment Code K/L)” value was “K (Log of liquid dish neat product liquid-air partition coefficient greater than or equal to −7)”. With `CC1=CCCC2(C)CCC3CC12OC3(C)C` (stereo not shown) [Material 726] the “Log … (Comment Code K/L)” value was “K (Log of liquid dish neat product liquid-air partition coefficient greater than or equal to −7)”. In the case of `CC12CCCC(O)(C1)C1CC(C)(C)C1CC2` (stereo not shown) [Material 574], the “Log … (Comment Code K/L)” value is reported as “K (Log of liquid dish neat product liquid-air partition coefficient greater than or equal to −7)”. For `COC1CC2CC1C1CC(C=O)CC21` (stereo not shown) [Material 1027], the “Log … (Comment Code K/L)” value was “K (Log of liquid dish neat product liquid-air partition coefficient greater than or equal to −7)”. With `CC(C)C1=CCC(C)(O)CC1` (stereo not shown) [Material 982] the “Log … (Comment Code K/L)” value was “K (Log of liquid dish neat product liquid-air partition coefficient greater than or equal to −7)”. For `CC1=CCC(O)(C(C)C)CC1` (stereo not shown) [Material 791], the “Log … (Comment Code K/L)” value was “K (Log of liquid dish neat product liquid-air partition coefficient greater than or equal to −7)”. In the case of `CCOCOC1CCCCCCCCCCC1` [Material 607], the “Log … (Comment Code K/L)” value is reported as “K (Log of liquid dish neat product liquid-air partition coefficient greater than or equal to −7)”.

Same assay, conditions: class code letter within Comment Code
In the case of `C=C(C)C1CCC(C)C(OC(C)=O)C1` (stereo not shown) [Material 444], the “Log … (Comment Code K/L)” value is reported as “K (Log of liquid dish neat product liquid-air partition coefficient greater than or equal to −7)”. In the case of `C=C1C=CC(C(C)C)CCC(C)=CCC1` (stereo not shown) [Material 296], the “Log … (Comment Code K/L)” value is reported as “K (Log of liquid dish neat product liquid-air partition coefficient greater than or equal to −7)”. With `C=CC(C)=CCCC(C)(C)O` [Material 42] the “Log … (Comment Code K/L)” value was “K (Log of liquid dish neat product liquid-air partition coefficient greater than or equal to −7)”. For `CC(C=O)Cc1ccc2c(c1)OCO2` (stereo not shown) [Material 288], the “Log … (Comment Code K/L)” value was “K (Log of liquid dish neat product liquid-air partition coefficient greater than or equal to −7)”. With `CCCCCCCCCCCCCC#N` [Material 38] the “Log … (Comment Code K/L)” value was “K (Log of liquid dish neat product liquid-air partition coefficient greater than or equal to −7)”. With `C=CC(C)(O)CCC=C(C)CCC=C(C)C` (stereo not shown) [Material 63] the “Log … (Comment Code K/L)” value was “K (Log of liquid dish neat product liquid-air partition coefficient greater than or equal to −7)”. For `C=CCc1cc(OC)c2c(c1)OCO2` [Material 37], the “Log … (Comment Code K/L)” value was “K (Log of liquid dish neat product liquid-air partition coefficient greater than or equal to −7)”. With `CC/C=C\CCC1=CCCC1=O` [Material 146] the “Log … (Comment Code K/L)” value was “K (Log of liquid dish neat product liquid-air partition coefficient greater than or equal to −7)”. For `C=C1[C@H]2CC[C@H](CO)[C@@]23CC[C@H](C3)C1(C)C` [Material 183], the “Log … (Comment Code K/L)” value was “K (Log of liquid dish neat product liquid-air partition coefficient greater than or equal to −7)”. For `CC(=O)c1oc2ccccc2c1C` [Material 61], the “Log … (Comment Code K/L)” value was “K (Log of liquid dish neat product liquid-air partition coefficient greater than or equal to −7)”. For `CCCCCCCCC1CCC(=O)O1` (stereo not shown) [Material 330], the “Log … (Comment Code K/L)” value was “K (Log of liquid dish neat product liquid-air partition coefficient greater than or equal to −7)”. With `CC(=O)c1ccc2ccccc2c1` [Material 120] the “Log … (Comment Code K/L)” value was “K (Log of liquid dish neat product liquid-air partition coefficient greater than or equal to −7)”. In the case of `C=CC1(C)Cc2occ(C)c2CC1C(=C)C` (stereo not shown) [Material 488], the “Log … (Comment Code K/L)” value is reported as “K (Log of liquid dish neat product liquid-air partition coefficient greater than or equal to −7)”. For `CC1CCCCCCCCCCCCC(=O)C1` (stereo not shown) [Material 79], the “Log … (Comment Code K/L)” value was “K (Log of liquid dish neat product liquid-air partition coefficient greater than or equal to −7)”. With `CC1C(C)(C)C2=C(C3OC(C)(C)OC3CC2)C1(C)C` (stereo not shown) [Material 23] the “Log … (Comment Code K/L)” value was “K (Log of liquid dish neat product liquid-air partition coefficient greater than or equal to −7)”. In the case of `CC(C)=CCCC(C)=CC1OCC(C)O1` (stereo not shown) [Material 519], the “Log … (Comment Code K/L)” value is reported as “K (Log of liquid dish neat product liquid-air partition coefficient greater than or equal to −7)”. For `CC(O)C(C)Cc1ccccc1` (stereo not shown) [Material 82], the “Log … (Comment Code K/L)” value was “K (Log of liquid dish neat product liquid-air partition coefficient greater than or equal to −7)”. For `CCCCCCCCCCOC(=O)CC` [Material 471], the “Log … (Comment Code K/L)” value was “K (Log of liquid dish neat product liquid-air partition coefficient greater than or equal to −7)”. With `Cc1ccc2c(c1)OCC(=O)CO2` [Material 17] the “Log … (Comment Code K/L)” value was “K (Log of liquid dish neat product liquid-air partition coefficient greater than or equal to −7)”.

Same assay, conditions: code letters K, L
In the case of `CCc1ccccc1CC(C)(C)C=O` [Material 354], the “Comment Code: Log of liquid dish neat product liquid-air partition coefficient” value (shortened to “Comment Code: Log”) is reported as “K (Log of liquid dish neat product liquid-air partition coefficient greater than or equal to −7)”. For `CC(=O)OC12CCCC(C)(CCC3C1CC3(C)C)C2` (stereo not shown) [Material 573], the “Comment Code: Log” value was “K (Log of liquid dish neat product liquid-air partition coefficient greater than or equal to −7)”. With `CC=Cc1ccc(OC(C)=O)c(OC)c1` [Material 213] the “Comment Code: Log” value was “K (Log of liquid dish neat product liquid-air partition coefficient greater than or equal to −7)”. With `CC(C)C1CCC(CO)CC1` (stereo not shown) [Material 133] the “Comment Code: Log” value was “K (Log of liquid dish neat product liquid-air partition coefficient greater than or equal to −7)”. With `CC(C)C(=O)OC1CC2CCC1(C)C2(C)C` (stereo not shown) [Material 603] the “Comment Code: Log” value was “K (Log of liquid dish neat product liquid-air partition coefficient greater than or equal to −7)”. For `C=CC(C)(O)CCC=C(C)C` (stereo not shown) [Material 157], the “Comment Code: Log” value was “K (Log of liquid dish neat product liquid-air partition coefficient greater than or equal to −7)”. In the case of `C=C1[C@H]2CC[C@H](CO)[C@@]23CC[C@H](C3)C1(C)C` [Material 183], the “Comment Code: Log” value is reported as “K (Log of liquid dish neat product liquid-air partition coefficient greater than or equal to −7)”. For `C=CCOC(=O)COc1ccccc1` [Material 743], the “Comment Code: Log” value was “K (Log of liquid dish neat product liquid-air partition coefficient greater than or equal to −7)”. In the case of `COc1cc(C)ccc1O` [Material 492], the “Comment Code: Log” value is reported as “K (Log of liquid dish neat product liquid-air partition coefficient greater than or equal to −7)”. For `CC1=CCCC2(C)CCC3CC12OC3(C)C` (stereo not shown) [Material 726], the “Comment Code: Log” value was “K (Log of liquid dish neat product liquid-air partition coefficient greater than or equal to −7)”. In the case of `C/C=C\c1ccc(O)c(OC)c1` [Material 528], the “Comment Code: Log” value is reported as “K (Log of liquid dish neat product liquid-air partition coefficient greater than or equal to −7)”. For `C=CC1(C)Cc2occ(C)c2CC1C(=C)C` (stereo not shown) [Material 488], the “Comment Code: Log” value was “K (Log of liquid dish neat product liquid-air partition coefficient greater than or equal to −7)”. In the case of `CC12CCCC(O)(C1)C1CC(C)(C)C1CC2` (stereo not shown) [Material 574], the “Comment Code: Log” value is reported as “K (Log of liquid dish neat product liquid-air partition coefficient greater than or equal to −7)”. With `C=C[C@](C)(O)CCC=C(C)C` [Material 888] the “Comment Code: Log” value was “K (Log of liquid dish neat product liquid-air partition coefficient greater than or equal to −7)”. For `CC1C(C)(C)C2=C(C3OC(C)(C)OC3CC2)C1(C)C` (stereo not shown) [Material 23], the “Comment Code: Log” value was “K (Log of liquid dish neat product liquid-air partition coefficient greater than or equal to −7)”. With `CC(O)CCC1CCCCC1` (stereo not shown) [Material 699] the “Comment Code: Log” value was “K (Log of liquid dish neat product liquid-air partition coefficient greater than or equal to −7)”. For `COC1CC2CC1C1CC(C=O)CC21` (stereo not shown) [Material 1027], the “Comment Code: Log” value was “K (Log of liquid dish neat product liquid-air partition coefficient greater than or equal to −7)”. In the case of `COc1ccccc1C=CC=O` [Material 26], the “Comment Code: Log” value is reported as “K (Log of liquid dish neat product liquid-air partition coefficient greater than or equal to −7)”. With `C/C=C(\C)C(=O)OCCc1ccccc1` [Material 960] the “Comment Code: Log” value was “K (Log of liquid dish neat product liquid-air partition coefficient greater than or equal to −7)”.
